{"source": "paper PMC5706701", "about": "“Development of a homogenous high-throughput assay for inositol hexakisphosphate kinase 1 activity” (PLoS ONE, 2017)", "target": "T1, Human IP6K1 (Homo sapiens, UniProt Q92551)", "T1 construct": "GST (N, cleaved yes); made in house; host or cells: C43 E. coli, pGEX-6P-2", "T1 sequence (Q92551 whole entry)": "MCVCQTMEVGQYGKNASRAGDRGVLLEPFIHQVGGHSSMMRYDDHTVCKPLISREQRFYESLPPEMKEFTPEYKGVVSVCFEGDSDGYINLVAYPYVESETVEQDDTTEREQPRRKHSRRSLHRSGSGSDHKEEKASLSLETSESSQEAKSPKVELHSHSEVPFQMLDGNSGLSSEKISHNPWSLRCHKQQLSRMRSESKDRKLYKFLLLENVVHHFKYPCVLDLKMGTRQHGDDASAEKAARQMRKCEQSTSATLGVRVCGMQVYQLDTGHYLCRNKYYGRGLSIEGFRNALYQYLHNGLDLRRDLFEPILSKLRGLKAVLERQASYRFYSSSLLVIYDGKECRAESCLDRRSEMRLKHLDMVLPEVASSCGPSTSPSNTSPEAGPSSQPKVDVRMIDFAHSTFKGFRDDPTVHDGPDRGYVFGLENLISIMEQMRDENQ", "assay": "IP6K1 high-throughput screen of the Sigma LOPAC (ADP-Glo Max, single point);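 further: final compound concentration 10µM in 5% DMSO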", "type": "biochemical", "key": {"[1]": {"conditions": "LOPAC single-point screen, ADP-Glo Max luminescence raw signal per well"}, "[2]": {"conditions": "LOPAC single-point screen, Z-score relative to plate average and StDev"}, "[3]": {"conditions": "Sigma LOPAC single-point screen, ADP-Glo Max raw signal per well"}, "[4]": {"conditions": "Sigma LOPAC single-point screen, Z-score from plate average and StDev"}, "[5]": {"conditions": "LOPAC single-point screen, ADP-Glo Max raw signal per well"}, "[6]": {"conditions": "LOPAC single-point screen, Z-score against plate average and StDev"}, "[7]": {"conditions": "LOPAC single-point screen, Z-score from raw signal with plate average and StDev"}}, "note": "Structures can show the parent of a compound that is named as a salt. Where two headings read alike, the source gives them in different places."}
{"compound": "Nc1ncnc2c1ncn2[C@@H]1O[C@H](COP(=O)(O)CP(=O)(O)OP(=O)([O-])[O-])[C@@H](O)[C@H]1O.[Li+].[Li+]", "values": [{"measurement": "Raw Signal", "setting": "[1]", "result": 51012}, {"measurement": "Z-score", "setting": "[2]", "result": -0.5682}]}
{"compound": "CC(C)NC[C@H](O)COc1cccc2ccccc12", "note": "[(S)-Propranolol hydrochloride]", "values": [{"measurement": "Raw Signal", "setting": "[3]", "result": 59687}, {"measurement": "Z-score", "setting": "[4]", "result": 0.7117}]}
{"compound": "CC(C)C[C@H](N)CSSC[C@@H](N)CC(C)C.Cl.Cl", "note": "[L-Leucinethiol, oxidized dihydrochloride]", "values": [{"measurement": "Raw Signal", "setting": "[5]", "result": 55535}, {"measurement": "Z-score", "setting": "[6]", "result": 0.1918}]}
{"compound": "O=C(O)/C=C\\C(=O)O.c1cnc(N2CCN(Cc3ccc4c(c3)OCO4)CC2)nc1", "note": "[Piribedil maleate]", "values": [{"measurement": "Raw Signal", "setting": "[3]", "result": 62540}, {"measurement": "Z-score", "setting": "[4]", "result": 1.266}]}
{"compound": "Br.COc1ccc(-c2ccc(=N)n(CCCC(=O)O)n2)cc1", "note": "[SR-95531]", "values": [{"measurement": "Raw Signal", "result": 59972}, {"measurement": "Z-score", "result": 0.7671}]}
{"compound": "Br.C=CCN1CCc2cc(O)c(O)cc2C(c2ccc(O)cc2)C1", "note": "(racemic) [(±)-SKF 38393, N-allyl-, hydrobromide]", "values": [{"measurement": "Raw Signal", "setting": "[5]", "result": 54138}, {"measurement": "Z-score", "setting": "[7]", "result": -0.3664}]}
{"compound": "CC(=O)OC(C)C[N+](C)(C)C.[Cl-]", "note": "(stereo not drawn) [Acetyl-beta-methylcholine chloride]", "values": [{"measurement": "Raw Signal", "setting": "[1]", "result": 54689}, {"measurement": "Z-score", "setting": "[2]", "result": -0.5679}]}
{"compound": "Foliosidine", "values": [{"measurement": "Raw Signal", "setting": "[5]", "result": 53530}, {"measurement": "Z-score", "setting": "[7]", "result": -0.3325}]}
{"compound": "N=C1Sc2ccccc2C2=NCCCN12", "note": "[PD 404,182]", "values": [{"measurement": "Raw Signal", "setting": "[5]", "result": 56268}, {"measurement": "Z-score", "setting": "[6]", "result": 0.315}]}
{"compound": "N[C@@H](CCC(=O)N[C@@H](CSN=O)C(=O)NCC(=O)O)C(=O)O", "note": "[S-Nitrosoglutathione]", "values": [{"measurement": "Raw Signal", "setting": "[5]", "result": 53456}, {"measurement": "Z-score", "setting": "[7]", "result": -0.1575}]}
{"compound": "Oc1ncnc2[nH]ncc12", "note": "[Allopurinol]", "values": [{"measurement": "Raw Signal", "setting": "[5]", "result": 56130}, {"measurement": "Z-score", "setting": "[7]", "result": -0.3141}]}
{"compound": "OC[C@H]1O[C@@H](n2cnc3c(NCCc4ccccc4)ncnc32)[C@H](O)[C@@H]1O", "note": "[N6-2-Phenylethyladenosine]", "values": [{"measurement": "Raw Signal", "setting": "[1]", "result": 52095}, {"measurement": "Z-score", "setting": "[2]", "result": -0.7633}]}
{"compound": "CC1(C)CCC2=C(O1)c1ccccc1C(=O)C2=O", "note": "[beta-Lapachone]", "values": [{"measurement": "Raw Signal", "setting": "[5]", "result": 54181}, {"measurement": "Z-score", "setting": "[6]", "result": -0.03571}]}
{"compound": "CCCN(CCC)[C@@H]1CCc2c(F)ccc(O)c2C1.Cl", "note": "[R(+)-UH-301 hydrochloride]", "values": [{"measurement": "Raw Signal", "setting": "[5]", "result": 54775}, {"measurement": "Z-score", "setting": "[7]", "result": -0.2426}]}
{"compound": "Cc1cccc(C)c1N=C1NCCCS1", "note": "[Xylazine hydrochloride]", "values": [{"measurement": "Raw Signal", "result": 56727}, {"measurement": "Z-score", "result": 0.1366}]}
{"compound": "Cc1cn([C@H]2C[C@H](N=[N+]=[N-])[C@@H](CO)O2)c(=O)[nH]c1=O", "note": "[3 -Azido-3 -deoxythymidine]", "values": [{"measurement": "Raw Signal", "setting": "[3]", "result": 61635}, {"measurement": "Z-score", "setting": "[4]", "result": 0.6555}]}
{"compound": "CCN(CC)CCOC(=O)c1cc(Cl)c(N)cc1OC.Cl", "note": "[SDZ-205,557 hydrochloride]", "values": [{"measurement": "Raw Signal", "setting": "[5]", "result": 56215}, {"measurement": "Z-score", "setting": "[6]", "result": 0.03715}]}
{"compound": "CC(=O)O[C@H]1C(=O)[C@@]2(C)[C@H]([C@H](OC(=O)c3ccccc3)[C@]3(O)C[C@H](OC(=O)[C@H](O)[C@@H](NC(=O)c4ccccc4)c4ccccc4)C(C)=C1C3(C)C)[C@]1(OC(C)=O)CO[C@@H]1C[C@@H]2O", "note": "[Taxol]", "values": [{"measurement": "Raw Signal", "setting": "[3]", "result": 58493}, {"measurement": "Z-score", "setting": "[4]", "result": 0.4797}]}
{"compound": "NCCc1c[nH]c2ccccc12", "note": "[Tryptamine hydrochloride]", "values": [{"measurement": "Raw Signal", "setting": "[3]", "result": 60596}, {"measurement": "Z-score", "setting": "[4]", "result": 0.4725}]}
{"compound": "CCNC(=O)[C@H]1O[C@@H](n2cnc3c(NCc4ccccc4)ncnc32)[C@H](O)[C@@H]1O", "note": "[N6-Benzyl-5 -N-ethylcarboxamidoadenosine]", "values": [{"measurement": "Raw Signal", "setting": "[5]", "result": 59001}, {"measurement": "Z-score", "setting": "[6]", "result": 0.1916}]}
{"compound": "Cl.OCc1c[nH]cn1", "note": "[4-Imidazolemethanol hydrochloride]", "values": [{"measurement": "Raw Signal", "setting": "[5]", "result": 56297}, {"measurement": "Z-score", "setting": "[6]", "result": 0.2295}]}
{"compound": "CN(C)CCOC(C)(c1ccccc1)c1ccccn1", "note": "(centres unmarked) [Doxylamine succinate]", "values": [{"measurement": "Raw Signal", "setting": "[1]", "result": 49925}, {"measurement": "Z-score", "setting": "[2]", "result": -1.065}]}
{"compound": "Cc1cccc(C(=O)NCN2CCN(c3ccccc3C#N)CC2)c1.O=C(O)/C=C\\C(=O)O", "note": "[PD 168,077 maleate]", "values": [{"measurement": "Raw Signal", "setting": "[1]", "result": 64247}, {"measurement": "Z-score", "setting": "LOPAC single-point screen, Z-score from plate average and StDev", "result": 1.598}]}
{"compound": "NC[C@H](O)c1ccc(O)c(O)c1.O=C(O)C(O)C(O)C(=O)O", "note": "[L(-)-Norepinephrine bitartrate]", "values": [{"measurement": "Raw Signal", "setting": "[1]", "result": 29897}, {"measurement": "Z-score", "setting": "[2]", "result": -4.934}]}
{"compound": "Cn1ccnc1", "note": "[1-Methylimidazole]", "values": [{"measurement": "Raw Signal", "setting": "[3]", "result": 56921}, {"measurement": "Z-score", "setting": "[4]", "result": 0.4247}]}
{"compound": "CS(=O)(=O)O.Cn1cc(C(F)(F)F)nc1-c1ccc(OCC(O)CNCCOc2ccc(O)c(C(N)=O)c2)cc1", "note": "(centres unmarked) [CGP 20712A methanesulfonate]", "values": [{"measurement": "Raw Signal", "setting": "[3]", "result": 57129}, {"measurement": "Z-score", "setting": "[4]", "result": 0.3985}]}
{"compound": "Nc1nccc2c1ncn2[C@@H]1O[C@H](CO)[C@@H](O)[C@H]1O", "note": "[3-deazaadenosine]", "values": [{"measurement": "Raw Signal", "setting": "[1]", "result": 51727}, {"measurement": "Z-score", "setting": "[2]", "result": -0.6986}]}
{"compound": "CCC(=O)N1CCN(C(=O)c2ccccc2)CC1", "note": "[DM 235]", "values": [{"measurement": "Raw Signal", "setting": "[5]", "result": 55630}, {"measurement": "Z-score", "setting": "[6]", "result": 0.09402}]}
{"compound": "CNCCNS(=O)(=O)c1cccc2cnccc12.Cl.Cl", "note": "[H-8 dihydrochloride]", "values": [{"measurement": "Raw Signal", "setting": "[5]", "result": 53425}, {"measurement": "Z-score", "setting": "[7]", "result": -0.1627}]}
{"compound": "O=C(O)c1ccccc1Nc1ccccc1", "note": "[N-Phenylanthranilic acid]", "values": [{"measurement": "Raw Signal", "setting": "[3]", "result": 63268}, {"measurement": "Z-score", "setting": "[4]", "result": 0.9431}]}
{"compound": "CCCc1c(-c2ccc(O)cc2)nn(-c2ccc(O)cc2)c1-c1ccc(O)cc1", "values": [{"measurement": "Raw Signal", "setting": "[1]", "result": 52149}, {"measurement": "Z-score", "setting": "[2]", "result": -0.6129}]}
